pIC50: −log10 of the molar value. Activity calls are given as the source filed them. The rule behind the calls is not given here.
Molecular target: Sphingosine 1-phosphate receptor 4 (Homo sapiens) (UniProt O95977)
Assay: antagonism at human S1PR4 – cell-based, FRET, dose response, selectivity assay for S1PR3 antagonist project, late-stage follow-up (AID 743432)
Settings: S1P4 cell line

Sequence of Sphingosine 1-phosphate receptor 4 (Homo sapiens) (O95977 whole entry, looked up): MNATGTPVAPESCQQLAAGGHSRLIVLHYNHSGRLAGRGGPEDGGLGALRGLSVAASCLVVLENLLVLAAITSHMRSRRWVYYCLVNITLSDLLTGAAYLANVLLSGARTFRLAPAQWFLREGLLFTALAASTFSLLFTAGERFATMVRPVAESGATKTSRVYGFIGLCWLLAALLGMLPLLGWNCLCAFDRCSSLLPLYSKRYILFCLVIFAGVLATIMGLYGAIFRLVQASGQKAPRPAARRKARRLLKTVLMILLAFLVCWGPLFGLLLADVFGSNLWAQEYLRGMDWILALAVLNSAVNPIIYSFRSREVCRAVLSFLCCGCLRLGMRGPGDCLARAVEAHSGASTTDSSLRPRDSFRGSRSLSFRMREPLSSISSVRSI

| SMILES | IC50 | pIC50 |
| --- | --- | --- |
| O=C(NC(c1cccc(Cl)c1)c1nc(-c2ccccc2)no1)c1ccc(Cl)c(Cl)c1 (stereo not given) | > 50 µM (inactive) |  |
| O=C(NC(c1ccccc1)c1nc(-c2ccccc2)no1)c1cccc(Br)c1 (stereo not given) | > 50 µM (inactive) |  |
| O=C(NC(c1ccccc1)c1nc(-c2ccccc2)no1)c1cccc(Cl)n1 (stereo not given) | > 50 µM (inactive) |  |
| O=C(NC(c1nc(-c2ccccc2)no1)C1CCCCC1)c1ccc(Cl)c(Cl)c1 (stereo not given) | > 50 µM (inactive) |  |
| COc1ccc(C(=O)NC(c2ccccc2)c2nc(-c3ccccc3)no2)cc1 (stereo not given) | > 50 µM (inactive) |  |
| O=C(NC(c1ccc(Cl)c(Cl)c1)c1nc(-c2ccccc2)no1)c1ccccc1 (stereo not given) | > 50 µM (inactive) |  |
| N#Cc1ccc(C(=O)NC(c2ccc(Cl)c(Cl)c2)c2nc(-c3ccccc3)no2)cc1 (stereo not given) |  | 5.51 |
| O=C(NC(c1ccc(Cl)c(Cl)c1)c1nc(-c2ccccc2)no1)c1ccc(Cl)c(Cl)c1 (stereo not given) | > 50 µM (inactive) |  |
| CCc1ccc(C(NC(=O)c2cccc(Cl)c2)c2nc(-c3ccccc3)no2)cc1 (stereo not given) | > 50 µM (inactive) |  |
| O=C(c1cccc(Cl)c1)N(CCO)C(c1ccc(Cl)c(Cl)c1)c1nc(-c2ccccc2)no1 (stereo not given) | inactive |  |
| O=C(NC(c1ccc(Cl)cc1)c1nc(-c2ccccc2)no1)c1ccc(Cl)c(Cl)c1 (stereo not given) | > 50 µM (inactive) |  |

Continued, values first:

| IC50 | pIC50 | SMILES |
| --- | --- | --- |
| > 50 µM (inactive) |  | O=C(NC(c1cccc(Cl)c1)c1nc(-c2ccccc2)no1)c1cc(Cl)cc(Cl)c1 (stereo not given) |
| > 50 µM (inactive) |  | O=C(NC(c1ccc(Br)cc1)c1nc(-c2ccccc2)no1)c1ccc(Cl)c(Cl)c1 (stereo not given) |
| > 50 µM (inactive) |  | O=C(NC(c1ccc(Cl)cc1)c1nc(-c2cccc(Cl)c2)no1)c1cccc(Cl)c1 (stereo not given) |
| > 50 µM (inactive) |  | Cc1ccc(C(=O)NC(c2ccccc2)c2nc(-c3ccccc3)no2)cc1 (stereo not given) |
| > 50 µM (inactive) |  | O=C(NC(c1ccc(Cl)cc1)c1nc(-c2ccccc2)no1)c1ccc(Cl)c(Br)c1 (stereo not given) |
| > 50 µM (inactive) |  | Cc1ccc(C(NC(=O)c2cccc(Cl)c2)c2nc(-c3ccccc3)no2)cc1 (stereo not given) |
| > 50 µM (inactive) |  | O=C(NC(c1ccccc1)c1nc(-c2ccccc2)no1)c1cccc(Cl)c1 (stereo not given) |
|  | 5.28 | O=C(NC(c1cccc(Cl)c1)c1nc(-c2ccccc2)no1)c1cccc(Cl)c1 (stereo not given) |
| > 50 µM (inactive) |  | O=C(NC(c1ccc(Cl)cc1)c1nc(-c2ccccn2)no1)c1cccc(Cl)c1 (stereo not given) |

Reference: PubChem BioAssay AID743432 (The Scripps Research Institute Molecular Screening Center, 2014)
